# Data published in ChEMBL document CHEMBL1149876, “The berkeleyamides, amides from the acid lake fungus Penicillum rubrum” (J Nat Prod, 2008).
# Active and inactive are the calls of the source. The rule behind the calls is not given here.
# Tests used:
# Stromelysin-1 = Stromelysin-1 (Homo sapiens, UniProt P08254); assay: Inhibition of MMP3
# Caspase-1 (Homo sapiens) = molecular target: T1, Caspase-1 (Homo sapiens) (UniProt P29466); assay: (§1) Inhibition of caspase 1
# T1 sequence (whole entry): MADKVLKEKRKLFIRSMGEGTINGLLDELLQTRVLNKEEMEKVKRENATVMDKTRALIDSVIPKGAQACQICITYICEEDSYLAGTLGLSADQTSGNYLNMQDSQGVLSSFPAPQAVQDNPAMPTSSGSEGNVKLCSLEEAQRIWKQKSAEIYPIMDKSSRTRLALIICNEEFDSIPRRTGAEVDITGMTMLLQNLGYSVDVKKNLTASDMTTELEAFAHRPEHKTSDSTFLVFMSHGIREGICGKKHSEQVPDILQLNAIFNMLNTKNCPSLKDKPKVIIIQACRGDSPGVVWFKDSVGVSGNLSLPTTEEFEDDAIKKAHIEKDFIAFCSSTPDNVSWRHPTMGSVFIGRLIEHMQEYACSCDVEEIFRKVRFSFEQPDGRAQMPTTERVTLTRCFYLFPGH
# Caspase-1 = molecular target: T2, Caspase-1 (Homo sapiens, UniProt P29466); assay: as §1
# T2 sequence (P29466 whole entry): T1 sequence (whole entry)
Activity (Stromelysin-1),Activity (Caspase-1 (Homo sapiens)),IC50 (Stromelysin-1),IC50 (Caspase-1),Structure (SMILES)
Active,Active,,,CC(=O)OC(c1ccccc1)c1cc(=O)c(C(=O)NC(=O)CC(C)C)cn1CCO (stereo not drawn)
Active,Active,,,CC(=O)OC(c1ccccc1)c1cc(=O)c(C(=O)NC(=O)CC(C)C)co1 (stereo not drawn)
,,330 nM,330 nM,CC(C)C[C@H]1C[C@H]([C@@H](O)CC(=O)Cc2ccccc2)C(=O)N1 [BERKELEYAMIDE A]
,,610 nM,610 nM,CC(C)CC1(O)NC(=O)C2(OC(Cc3ccccc3)=CC2=O)C1O (stereo not drawn) [BERKELEYAMIDE D]
